# Measurements: patent publication US20220040255A1, “CHEMOTHERAPEUTIC REMODELING OF THE GUT MICROBIOME” (THE SCRIPPS RESEARCH INSTITUTE, priority 2018, published 2022)
# Where a SMILES comes first, the peptide text is derived from it. [ ]: non-standard residue; d: D form.
# Legend:
# [1] = system: intestinal absorption of cholesterol; test: fecal dual-isotope cholesterol absorption assay; assay type: in vivo, LDLr−/− mice; details: 180 μM in drinking water, 2-wk treatment, WD
# Description: In vivo cholesterol absorption assay. This experiment was carried out courtesy of Carol S. Ryan, Debra J. Search, Ricardo A. Garcia, and David A. Gordon at Bristol Myers Squibb (Hopewell, N.J., USA). To assess the effects of c[wLwReQeR] (SEQ ID NO:11) on intestinal absorption of cholesterol, male LDLr^−/− mice (Jackson Laboratories) ranging from 8-10 weeks old were acclimated to single housing in standard solid bottom bedded cages for at least one week at BMS facilities. During the acclimation period, the mice were fed a chow diet ad libitum. At the start of the treatment period and for the duration of the study, mice were switched to high-fat, high-cholesterol Western diet (Research Diets D12108C) containing 1.25% cholesterol and 20% fat ad libitum. The peptide was administered in the drinking water ad libitum as a solution with 1% sucrose at 180 μM (˜35 mg/kg/day). […]
# Following a 2-wk treatment period, cholesterol absorption was measured using a dual fecal isotope ratio method. […] Plasma (˜20 μl) was added to 5 ml of Opti-fluor Scintillation cocktail (Packard Bioscience #6013199) and counted on ^3H and ^14C channels to evaluate cholesterol efflux. Radioactivity in feces was analyzed as follows: for each animal, feces recovered over the 48 hours was dried overnight at 50° C. and 0.1 gram of dried feces was transferred to a glass tube. […]
# total bile acid = test: bulk (total) bile acid quantification; assay type: in vivo, LDLr−/− mice; details: 2-wk treatment
# Description: Bulk bile acid quantification. Total bile acids were measured enzymatically using a total bile acid assay kit (Cell Biolabs) following manufacturer's instruction. Feces were obtained between 0900-1100 am from non-fasted animals after a 2-wk treatment period. The extraction of bile acid from feces was performed as described in Yu et al., J. Biol. Chem. 275, 15482-15489, 2000. In brief, the feces from individual mice were collected, weighed, and agitated in 75% ethanol in an ultrasonic bath at 50° C. for 2 h. After centrifugation at 3,500 g for 10 min, the supernatant was transferred to a new tube and diluted with 25% PBS. The total bile acid level was then determined enzymatically using the kit. For plasma samples, the plasma was diluted 1:10 with 25% PBS prior to enzymatic bile acid measurement using the kit.
smiles,measurement,setting,value
CC(C)C[C@@H]1NC(=O)[C@@H](Cc2c[nH]c3ccccc23)NC(=O)[C@H](CCCNC(=N)N)NC(=O)[C@@H](CCC(=O)O)NC(=O)[C@H](CCC(N)=O)NC(=O)[C@@H](CCC(=O)O)NC(=O)[C@H](CCCNC(=N)N)NC(=O)[C@@H](Cc2c[nH]c3ccccc23)NC1=O [c[wLwReQeR]] (cyclo([dW]L[dW]R[dE]Q[dE]R)),absorption of dietary cholesterol,[1],did not reduce
same,"total bile acid in the feces, peptide-treated vs. control WD-fed mice",total bile acid; feces,two-fold higher
same,"total bile acid in the plasma, peptide-treated vs. control WD-fed mice",total bile acid; plasma,three-fold lower
